Results as given in patent US10568923B2, “Plant parts and extracts having anticoccidial activity” (priority 2012, dated 2020).
Entries after “also recorded” stand apart in the source; their conditions may differ.

Assays:
[1] = test system: E. tenella (Houghton strain); assay: Example 1 screening trial: Q. infectoria in controlling caecal coccidiosis in broiler chickens; assay type: in vivo, Eimeria tenella; conditions: day 7 post infection; average of three replicates; Q. infectoria 100 g/ton feed, Coxistac 1000 g/ton
Protocol: The screening trial was conducted at a poultry farm facility located in Gummidipundi, India. Straight run commercial hybrid broiler chickens, Gallus domesticus (Var. Vencobb 400) were used for the study. Day old male chicks were procured, weighed individually, wing banded, and randomly segregated into groups. The experimental design is detailed in Table 1.
The treated birds were fed with plant extract incorporated in the feed from day 1 (Table 2). The crude powders of Q. infectoria gall nut were procured from Pooja herbs, Mumbai, India. […]
The excreta of the birds were monitored daily from the day 1 post infection to day 10 for their consistency, presence of blood, mucus, undigested feed, and orange color. […]
The mortality of the birds was recorded on a daily basis and post mortem was carried out to confirm the cause of death.
On day 5 and 7 post infection, 2 birds from each of the groups were sacrificed by cervical dislocation and the intestine was cut open. The caeca of the birds were scored for coccidiosis lesions. […]
Triplicate samples of the excreta of the birds were collected randomly from the tray kept below the cages and the oocyst per gram was evaluated.

[2] = Example 15: compatibility with Tiamulin in commercial broilers (Ross 308), 42 days; assay type: in vivo, Gallus domesticus (Var. Ross 308); conditions: used in combination in feed of broilers
Protocol: Experimental facility and study design. An in vivo trial was conducted at Ramadootha poultry farm, Hyderabad, India. Straight run commercial hybrid broiler chickens, Gallus domesticus (Var. Ross 308) were used for the study. Day old male chicks were procured from Suguna Broilers, India. The birds were weighed individually, wing banded, and randomly segregated into groups. The experimental design is detailed in Table 18.
Details of treatment groups. The treated birds were fed with supplements incorporated in the feed from day 1 (Table 22).
Parameters analyzed. The parameters that were chosen for analyses were body weight, feed conversion ratio (FCR) on a weekly basis, mortality and leg weakness on daily basis.
Mean body weight. Birds from each of the groups were removed and weighed individually every week to calculate the weight gain. The cumulative average weight gain of the 8 replicates of each of the group was taken as the mean weight/week.
Feed Conversion ratio (FCR). The total feed consumption was monitored regularly and FCR was arrived at by dividing the feed consumed per bird by the final weight per bird.
Mortality. Mortality was recorded on daily basis and the total mortality was calculated and expressed as %. […]
Leg weakness. All birds were examined every day for the major clinical signs, leg weakness which was scored on a 0 to 4 scale. […]

[3] = test system: E. maxima (isolate ID NKL/11/Ac1); assay: Example 14: in vivo anticoccidial trial in Cobb 400 broilers challenged with E. maxima; set-up: species or system Eimeria maxima; conditions: day 6 post challenge
Excerpt: The trial was designed with 11 treatment groups with 2 replicates per groups and 12 male birds per replicate. The groups included (1) uninfected control, (2) infected control, (3) positive control groups supplemented with Salinomycin (Coxistac) at the recommended dosage, (4) treatment group treated with 20 and 50 g/ton of pure THB, (5) encapsulated THB at 46.3, 92.6 and 185.2 g/ton of feed, and (6) microemulsion of THB at 138.9, 277.8 and 416.7 g/ton of feed. […] The parameters evaluated were lesion scoring on day 6 post challenge and oocysts shedding on day 7 post-challenge.
The trial was conducted at the R & D poultry farm facility of Kemin Animal Nutrition and Health (India), Gummidipundi. Straight run commercial hybrid broiler chickens, Gallus domesticus (Var. Vencobb 400) were used for the study. Day old male chicks were procured from Shanthi hatcheries, Coimbatore, India. Birds were weighed and examined for general health at receipt. The birds were individually identified by wing bands. The chicks were housed in mild steel cages which were cleaned, disinfected using Virkon S (Du Pont, India) and painted earlier. The birds were provided with ad libitum feed and water. No water sanitizers or antimicrobial compounds were used in the water or in the feed. The experimental design is detailed in Table 13. As this was a preliminary study to evaluate the effect of encapsulated and microemulsion of THB in controlling coccidiosis only 2 replicates were maintained.
The birds were fed with either feed containing no anticoccidial agent, THB, encapsulated THB, microemulsion of THB or Salinomycin (Coxistac, Pfizer, India) incorporated in the feed from day 1. THB was obtained from J P N Pharma, Mumbai, India
The oocysts of E. maxima (isolate ID NKL/11/Ac1) that were maintained at the Department of Veterinary Parasitology, Madras Veterinary College, Chennai were used for the induction of coccidiosis in the trial birds. The origin of the isolate was a broiler bird with clinical coccidiosis, and they were propagated in vivo to yield oocyst quantities sufficient for the study. […]

[4] = test system: mixed culture of oocysts of the species E. tenella, E. acervulina and E. maxima; assay: In vivo challenge trial in broiler birds with mixed infection of coccidiosis (Examples 3, 10, 13); conditions: Example 10, 11, 22 and 55 ppm
[5] = test system: sporozoites of Eimeria tenella; assay: In vitro anti-sporozoite activity by MTT reduction assay; assay type: cell-based; conditions: peaks separated by semi-preparative HPLC; compared to crude powder in equivalent concentrations
Protocol: Further, an in vitro method based on 3-(4,5-Dimethyl-2-thiazolyl)-2,5-diphenyl-2H-tetrazolium bromide (MTT) reduction assay was developed to evaluate the anti-sporozoite activity of plant extracts as a measure of the viability of the sporozoites. The optimized method included the preparation, sterilization and purification of sporozoites, followed by incubation of sporozoite suspension (minimum of 10^5 cells/ml) with required concentration of plant extract. The plant samples were prepared by mixing crude powder into a known volume of distilled water to achieve the specific ppm, vortexed for 2 min and filtered through a 0.2μ syringe filter. Following 24 h of incubation with the plant extracts, the sporozoites were thoroughly washed and then MTT assay was performed. MTT-PMS solution (0.2 millimolar each) is incubated with the sporozoite suspension (at 1:10 ratio) for 2 h at 41° C. […] The purple dye formazan is dissolved in 200 ul DMSO and the absorbance is measured at 530 nm against a reference wavelength of 630 nm.
Q. infectoria gall nut crude powder was fractionated using different solvent by column chromatography. The sample from each of the fractions was evaluated for their anti-sporozoite activity.
These four compounds were separated by semi-preparative HPLC and anti-sporozoite activity was evaluated in comparison to the crude powder in equivalent concentrations.

| SMILES | Average Oocysts Per Gram Excreta [1] | Compatibility with Tiamulin [2] | Lesion score (mid-gut) ([3]; Coxistac at 500 g/ton of feed, vs infected control) | Dose response (lesion score, OPG) [4] | Lesion score for E. tenella, E. maxima and E. acervulina ([4]; day 5 post infection, vs infected control and Salinomycin) | Anti-sporozoite activity of the four major HPLC peaks (MTT) [5] | Lesion score (mid-gut) ([3]; pure THB at 25 and 50 ppm) | Lesion score (mid-gut) ([3]; pure THB at 25 and 50 ppm, listed as THB) |
| --- | --- | --- | --- | --- | --- | --- | --- | --- |
| CC[C@@H](C(=O)[C@@H](C)[C@@H](O)[C@H](C)[C@@H]1O[C@@H]([C@@H](CC)C(=O)O)CC[C@@H]1C)[C@H]1O[C@]2(C=C[C@@H](O)[C@]3(CC[C@@](C)([C@H]4CC[C@](O)(CC)[C@H](C)O4)O3)O2)[C@H](C)C[C@@H]1C [Salinomycin, reference compound] | did not show any indication of reduction of oocysts | indicates interaction | no significant reduction; also recorded: showed a reduction in lesion scores | – | – | – | – | – |
| O=C(O)c1cc(O)c(O)c(O)c1 (single isomer, unassigned) [gallic acid, 3,4,5-trihydroxybenzoic acid] | – | – | – | Dose dependent response was observed with no significant difference between gallic acid at 22 and 55 ppm | significant reduction in the score for all the three tested species | best anti-sporozoite activity | comparable efficacy | significant improvement in lesions scores when compared to the positive control |
